# Experiments:
# EL-4-mRORγt cells = assay: Resazurin conversion assay in EL-4-mRORγt cells; type: cell-based, murine; conditions: 5 μM, 20-24 h
# Description: To check the metabolic activity of cells correlating with cell viability, cells were treated with the vehicle control (0.1% DMSO), digitonin as the positive control for cytotoxicity at 20 μg/mL (HEK293 cells) or 50 μg/mL (EL-4-mRORγt cells), or the compounds of interest at 5 μM for 18 h (HEK293 cells) or 20–24 h (EL-4-mRORγt cells). The next day, the medium was carefully removed and replaced with stripped DMEM without phenol red, containing 10 μg/mL resazurin sodium salt. Cells were incubated for 5 h before RFU values were measured at λem = 590 nm using a spectrophotometer. Cell viability was calculated as follows: Cell viability(%)=100×RFU value after compound treatment/RFU value after vehicle control treatment Cytotoxicity was defined as cell viability under 70% according to the ISO 10993–5 guidelines. Cell viability <90% is explicitly stated in the respective figure.
# full-length human RORγ = target: T1, full-length human RORγ (Homo sapiens, UniProt P51449); assay: Full-length RORγ luciferase assay (RORE-LUC reporter); type: cell-based; conditions: HEK293 cells
# T1 construct: Encodes for the full-length human RORγ; expressed in transfected cells; host or cells: HEK293
# T1 sequence (P51449 1-518): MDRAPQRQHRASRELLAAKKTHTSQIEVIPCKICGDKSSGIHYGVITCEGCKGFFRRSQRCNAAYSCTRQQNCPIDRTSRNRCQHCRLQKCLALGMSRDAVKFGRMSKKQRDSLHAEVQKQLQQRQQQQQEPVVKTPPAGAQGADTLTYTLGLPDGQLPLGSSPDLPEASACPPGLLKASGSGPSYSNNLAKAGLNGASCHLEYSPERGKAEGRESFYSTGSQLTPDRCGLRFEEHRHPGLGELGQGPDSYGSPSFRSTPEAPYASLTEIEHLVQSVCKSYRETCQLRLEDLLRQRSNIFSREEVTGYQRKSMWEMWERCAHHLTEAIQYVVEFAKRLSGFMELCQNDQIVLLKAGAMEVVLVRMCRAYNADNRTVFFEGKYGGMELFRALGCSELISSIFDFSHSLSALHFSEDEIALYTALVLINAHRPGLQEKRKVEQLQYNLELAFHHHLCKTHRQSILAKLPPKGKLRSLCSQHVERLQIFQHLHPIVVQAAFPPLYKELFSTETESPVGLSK
# Description: (§1) For luciferase assays, 8 × 10^6 HEK293 cells were seeded on 150 mm cell culture dishes and incubated for 5 h. Afterward, cells were transfected with the calcium phosphate coprecipitation method using 5 μg of the nuclear receptor (Gal4-hRORγ or full-length human RORγ), 5 μg of a luciferase reporter (pTK-MH100 × 4-LUC for Gal4-hRORγ experiments or RORE-LUC for full-length human RORγ experiments) and 3 μg eGFP-N1 (for assessing transfection efficiency) plasmid DNA and incubated overnight. […] The medium was changed the following day, and cells were further incubated for another four to 5 h before trypsin/EDTA was added to detach them from the dishes. […] RLUs were normalized to relative fluorescence units (RFU) to account for differences in cell number and transfection efficiency and then normalized to the vehicle control. Results are expressed as fold activation relative to the vehicle control.
# (§2) Concentration–response data were analyzed in GraphPad Prism version 10 by three-parameter logistic nonlinear regression, with the Hill slope constrained to a theoretical value of −1.0. An IC50 value was determined only for compounds yielding a statistically reliable fit. […] In these cases, only the maximal inhibition achieved at the highest tested concentration (I max(%) at 5 μM) is reported, calculated as follows: Imax(%)=(1−Bottom/Top)×100 (“top” = baseline activity measured at the lowest concentration, “bottom” = residual activity observed at the highest concentration, corresponding to the maximal inhibitory effect).
# Gal4-hRORγ = target: T2, Gal4-hRORγ (Homo sapiens, UniProt P51449); assay: Gal4-RORγ mammalian one-hybrid luciferase assay; type: cell-based; conditions: HEK293 cells
# T2 construct: Encodes for a hRORγ-LBD:Gal4-DBD fusion protein; expressed in transfected cells; host or cells: HEK293
# T2 sequence (P51449 269-508 limits assumed): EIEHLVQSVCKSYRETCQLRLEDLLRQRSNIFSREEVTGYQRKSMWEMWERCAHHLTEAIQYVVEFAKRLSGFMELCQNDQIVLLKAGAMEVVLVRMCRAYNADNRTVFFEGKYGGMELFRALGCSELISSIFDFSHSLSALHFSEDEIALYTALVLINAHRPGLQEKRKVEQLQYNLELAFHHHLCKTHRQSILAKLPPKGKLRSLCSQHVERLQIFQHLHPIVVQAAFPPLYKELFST
# Description: as §1, §2
smiles,measurement,setting,value
"C=C(C)[C@@H]1CC[C@]2(C(=O)O)CC[C@]3(C)[C@H](CC[C@@H]4[C@@]5(C)C/C(=C/c6ccco6)C(=O)C(C)(C)[C@@H]5CC[C@]43C)[C@@H]12 [Compound 15, (2Z)-2-(2-furanylmethylene)-3-oxolup-20(29)-en-28-oic acid]","Cytotoxic effects, resazurin conversion assay",EL-4-mRORγt cells,no cytotoxic effects
same,"Imax(%) at 5 μM, full-length RORγ luciferase assay",full-length human RORγ; 5 μM,69%
same,IC50,"full-length human RORγ; 18 h treatment, up to 5 μM, read-out: IC50, full-length RORγ luciferase assay",900 nM
same,Activity in Gal4-RORγ luciferase assay (initial screen),Gal4-hRORγ; 3 μM,new inverse agonist of RORγ
same,"Imax(%) at 5 μM, Gal4-RORγ luciferase assay",Gal4-hRORγ; 5 μM,76%
same,IC50,"Gal4-hRORγ; 18 h treatment, up to 5 μM",400 nM
